# Experiments:
# Type in all cases: biochemical
# [1] = test system: G6P-DH; test: Long-term stability G6P-DH, 10 mmol/l DTT compared to 1 mmol/l Na2SO3; details: 1 mmol/l sulfite, example 1
# Protocol: (§1) For the determination 250 μl R1 is mixed with 10 μl sample, incubated for 5 minutes, the reaction is started with 50 μl R2 and the CK activity is measured after incubating for a further 1 minute. The CK or G6P-DH enzyme activity was determined after storage at 2 to 8° C. or 35° C. for various periods (table 1-3,FIGS. 1-3).
# The reagent R was combined with the sample to be measured as described in example 1 and the corresponding enzyme activities were determined (table 5,FIG. 5).
# [2] = test system: creatine kinase (CK); test: Regeneration of the CK in R1 by adding sulfite in R2 (example 4); details: 10 mmol/l sulfite in R2
# Protocol: as §1
# The mixing of R1, R2 and the respective sample and the subsequent determination were carried out according to example 1.
# [3] = test system: creatine kinase (CK); test: CK functional stability of the reagent with Na2SO3 (example 1); details: for CK functional stability, 35° C. compared to 2 to 8° C.: 14 days storage
# Protocol: as §1
# [4] = test system: G6P-DH; test: G6P-DH stability in the reagent with Na2SO3, 14 days storage (example 1); details: for G6P-DH stability, 35° C. compared to 2 to 8° C.: 14 days storage
# Protocol: as §1
# [5] = test system: creatine kinase (CK); test: Influence of the amount of sulfite on the CK activity (example 2)
# Protocol: as §1
# The reagent composition and the test procedure are essentially analogous to example 1. Only the amount of sodium sulfite (0 to 20 mmol/l) added to reagent 1 was varied.
# [6] = 1 mmol/l Na2SO3 in reagent 1, sample 1
# [7] = 1 mmol/l Na2SO3 in reagent 1, sample 2
# [8] = 2 mmol/l Na2SO3 in reagent 1, sample 1
# [9] = 2 mmol/l Na2SO3 in reagent 1, sample 2
# [10] = 3 mmol/l Na2SO3 in reagent 1, sample 1
# [11] = 3 mmol/l Na2SO3 in reagent 1, sample 2
# [12] = 4 mmol/l Na2SO3 in reagent 1, sample 1
# [13] = 4 mmol/l Na2SO3 in reagent 1, sample 2
compound,measurement,setting,value
"O=S([O-])[O-].[Na+].[Na+] [Na2SO3, sodium sulfite]",G6P-DH activity,[1]; 0 days at 2 to 8° C.,3.68 U/ml
same,G6P-DH activity relative to day 0,[1]; 0 days at 2 to 8° C.,100.0%
same,G6P-DH activity,[1]; 55 days at 2 to 8° C.,3.65 U/ml
same,G6P-DH activity relative to day 0,[1]; 55 days at 2 to 8° C.,99.2%
same,G6P-DH activity,[1]; 85 days at 2 to 8° C.,3.77 U/ml
same,G6P-DH activity relative to day 0,[1]; 85 days at 2 to 8° C.,102.3%
same,G6P-DH activity,[1]; 114 days at 2 to 8° C.,3.57 U/ml
same,G6P-DH activity relative to day 0,[1]; 114 days at 2 to 8° C.,96.9%
same,G6P-DH activity,[1]; 136 days at 2 to 8° C.,3.35 U/ml
same,G6P-DH activity relative to day 0,[1]; 136 days at 2 to 8° C.,91.0%
same,G6P-DH activity,[1]; 192 days at 2 to 8° C.,3.15 U/ml
same,G6P-DH activity relative to day 0,[1]; 192 days at 2 to 8° C.,85.5%
same,G6P-DH activity,[1]; 220 days at 2 to 8° C.,3.12 U/ml
same,G6P-DH activity relative to day 0,[1]; 220 days at 2 to 8° C.,84.7%
same,G6P-DH activity,[1]; 308 days at 2 to 8° C.,2.98 U/ml
same,G6P-DH activity relative to day 0,[1]; 308 days at 2 to 8° C.,80.9%
same,G6P-DH activity,[1]; 345 days at 2 to 8° C.,2.65 U/ml
same,G6P-DH activity relative to day 0,[1]; 345 days at 2 to 8° C.,72.0%
same,G6P-DH activity,[1]; 451 days at 2 to 8° C.,2.12 U/ml
same,G6P-DH activity relative to day 0,[1]; 451 days at 2 to 8° C.,57.6%
same,"CK activity, Sample 1",[2]; R1 stress 14 days 2-8° C.,238 U/l
same,"CK activity, Sample 2",[2]; R1 stress 14 days 2-8° C.,509 U/l
same,recovery sample 1 (vs. fresh reagent),[2]; R1 stress 14 days 2-8° C.,100.8%
same,recovery sample 2 (vs. fresh reagent),[2]; R1 stress 14 days 2-8° C.,99.5%
same,"CK activity, Sample 1",[2]; R1 stress 14 days 35° C.,227 U/l
same,"CK activity, Sample 2",[2]; R1 stress 14 days 35° C.,486 U/l
same,recovery sample 1 (vs. fresh reagent),[2]; R1 stress 14 days 35° C.,96.2%
same,recovery sample 2 (vs. fresh reagent),[2]; R1 stress 14 days 35° C.,94.7%
same,"CK activity, 14 days storage at 2 to 8° C.",[3]; [6],278 U/l
same,"CK activity, 14 days storage at 35° C.",[3]; [6],267 U/l
same,"CK functional stability, 35° C. compared to 2 to 8° C.",[3]; [6],96.0%
same,"CK activity, 14 days storage at 2 to 8° C.",[3]; [7],540 U/l
same,"CK activity, 14 days storage at 35° C.",[3]; [7],512 U/l
same,"CK functional stability, 35° C. compared to 2 to 8° C.",[3]; [7],94.8%
same,"CK activity, 14 days storage at 2 to 8° C.",[3]; [8],274 U/l
same,"CK activity, 14 days storage at 35° C.",[3]; [8],265 U/l
same,"CK functional stability, 35° C. compared to 2 to 8° C.",[3]; [8],97.0%
same,"CK activity, 14 days storage at 2 to 8° C.",[3]; [9],530 U/l
same,"CK activity, 14 days storage at 35° C.",[3]; [9],510 U/l
same,"CK functional stability, 35° C. compared to 2 to 8° C.",[3]; [9],96.2%
same,"CK activity, 14 days storage at 2 to 8° C.",[3]; [10],271 U/l
same,"CK activity, 14 days storage at 35° C.",[3]; [10],267 U/l
same,"CK functional stability, 35° C. compared to 2 to 8° C.",[3]; [10],98.5%
same,"CK activity, 14 days storage at 2 to 8° C.",[3]; [11],523 U/l
same,"CK activity, 14 days storage at 35° C.",[3]; [11],503 U/l
same,"CK functional stability, 35° C. compared to 2 to 8° C.",[3]; [11],96.2%
same,"CK activity, 14 days storage at 2 to 8° C.",[3]; [12],260 U/l
same,"CK activity, 14 days storage at 35° C.",[3]; [12],272 U/l
same,"CK functional stability, 35° C. compared to 2 to 8° C.",[3]; [12],104.4%
same,"CK activity, 14 days storage at 2 to 8° C.",[3]; [13],505 U/l
same,"CK activity, 14 days storage at 35° C.",[3]; [13],521 U/l
same,"CK functional stability, 35° C. compared to 2 to 8° C.",[3]; [13],103.1%
same,"G6P-DH activity, 14 days storage at 2 to 8° C.",[4]; 1 mmol/l Na2SO3 in reagent 1,3.95 U/l
same,"G6P-DH activity, 14 days storage at 35° C.",[4]; 1 mmol/l Na2SO3 in reagent 1,1.50 U/l
same,"G6P-DH stability, 35° C. compared to 2 to 8° C.",[4]; 1 mmol/l Na2SO3 in reagent 1,38.1%
same,"G6P-DH activity, 14 days storage at 2 to 8° C.",[4]; 2 mmol/l Na2SO3 in reagent 1,3.92 U/l
same,"G6P-DH activity, 14 days storage at 35° C.",[4]; 2 mmol/l Na2SO3 in reagent 1,1.57 U/l
same,"G6P-DH stability, 35° C. compared to 2 to 8° C.",[4]; 2 mmol/l Na2SO3 in reagent 1,39.9%
same,"G6P-DH activity, 14 days storage at 2 to 8° C.",[4]; 3 mmol/l Na2SO3 in reagent 1,3.98 U/l
same,"G6P-DH activity, 14 days storage at 35° C.",[4]; 3 mmol/l Na2SO3 in reagent 1,1.69 U/l
same,"G6P-DH stability, 35° C. compared to 2 to 8° C.",[4]; 3 mmol/l Na2SO3 in reagent 1,42.5%
same,"G6P-DH activity, 14 days storage at 2 to 8° C.",[4]; 4 mmol/l Na2SO3 in reagent 1,4.06 U/l
same,"G6P-DH activity, 14 days storage at 35° C.",[4]; 4 mmol/l Na2SO3 in reagent 1,1.76 U/l
same,"G6P-DH stability, 35° C. compared to 2 to 8° C.",[4]; 4 mmol/l Na2SO3 in reagent 1,43.5%
same,"CK activity, Sample 1",[5]; sulfite 1 mmol/l test,242 U/l
same,"CK activity, Sample 2",[5]; sulfite 1 mmol/l test,530 U/l
same,"CK function relative to 0 mmol/l sulfite, Sample 1",[5]; sulfite 1 mmol/l test,102.9%
same,"CK function relative to 0 mmol/l sulfite, Sample 2",[5]; sulfite 1 mmol/l test,100.2%
same,"CK activity, Sample 1",[5]; sulfite 2 mmol/l test,239 U/l
same,"CK activity, Sample 2",[5]; sulfite 2 mmol/l test,520 U/l
same,"CK function relative to 0 mmol/l sulfite, Sample 1",[5]; sulfite 2 mmol/l test,101.4%
same,"CK function relative to 0 mmol/l sulfite, Sample 2",[5]; sulfite 2 mmol/l test,98.4%
same,"CK activity, Sample 1",[5]; sulfite 3 mmol/l test,236 U/l
same,"CK activity, Sample 2",[5]; sulfite 3 mmol/l test,514 U/l
same,"CK function relative to 0 mmol/l sulfite, Sample 1",[5]; sulfite 3 mmol/l test,100.3%
same,"CK function relative to 0 mmol/l sulfite, Sample 2",[5]; sulfite 3 mmol/l test,97.2%
same,"CK activity, Sample 1",[5]; sulfite 4 mmol/l test,227 U/l
same,"CK activity, Sample 2",[5]; sulfite 4 mmol/l test,496 U/l
same,"CK function relative to 0 mmol/l sulfite, Sample 1",[5]; sulfite 4 mmol/l test,96.4%
same,"CK function relative to 0 mmol/l sulfite, Sample 2",[5]; sulfite 4 mmol/l test,93.8%
same,"CK activity, Sample 1",[5]; sulfite 5 mmol/l test,215 U/l
same,"CK activity, Sample 2",[5]; sulfite 5 mmol/l test,504 U/l
same,"CK function relative to 0 mmol/l sulfite, Sample 1",[5]; sulfite 5 mmol/l test,91.3%
same,"CK function relative to 0 mmol/l sulfite, Sample 2",[5]; sulfite 5 mmol/l test,95.3%
same,"CK activity, Sample 1",[5]; sulfite 10 mmol/l test,196 U/l
same,"CK activity, Sample 2",[5]; sulfite 10 mmol/l test,464 U/l
same,"CK function relative to 0 mmol/l sulfite, Sample 1",[5]; sulfite 10 mmol/l test,83.2%
same,"CK function relative to 0 mmol/l sulfite, Sample 2",[5]; sulfite 10 mmol/l test,87.7%
same,"CK activity, Sample 1",[5]; sulfite 20 mmol/l test,182 U/l
same,"CK activity, Sample 2",[5]; sulfite 20 mmol/l test,441 U/l
same,"CK function relative to 0 mmol/l sulfite, Sample 1",[5]; sulfite 20 mmol/l test,77.3%
same,"CK function relative to 0 mmol/l sulfite, Sample 2",[5]; sulfite 20 mmol/l test,83.3%

# Source: US6413733B1, “Stabilized reagent and method for determining creatine kinase” (Roche Diagnostics GmbH, priority 1997, dated 2002)
